According to US20110207751A1, “HETEROCYCLIC COMPOUNDS AND USES AS ANTICANCER AGENTS” (priority 2010, published 2011):
Counter-ions that a name gives are not always drawn.

Legend:
[1] = test system: MKN45 human gastric-intestinal cancer xenograft; assay: In vivo antitumor efficacy, MKN45 xenograft; parameters: species or system BALB/c immunodeficient nude mice; conditions: for Tumor inhibition rate %: by tumor weight
Description: To evaluate the in vivo anticancer efficacy of COMPOUND O, MKN45 human gastric-intestinal cancer xenograft models in immunodeficient nude mice was tested. All the mouse models are maintained in the Pharmacology Lab of ACEA Bio (Hangzhou) CO., Ltd. The BALB/c immunodeficient nude mice were purchased from Shanghai SLAC Laboratory Animal, certification number: SCXKA (Shanghai) 2007-0005. The mouse weight was 19±1 g. Only female mice were used in this study. The numbers of animals tested were as follow: 7 for each dose group, 7 for positive control group and 7 for negative control group.
Test Control. For negative control, each mouse was administered orally with the solvent only having the same volume and same concentration as those used in COMPOUND O test, 120 mg/kg once every other day (qod) for 18 days. […]
Preparation an Administration of Test Compounds. COMPOUND O was dissolved in 25% phospholipid (S75) and 75% polyvinylpyrrolidone (PL-PVP) then further diluted to 8 mg/ml in 0.9% NaCl aqueous solution. Different dosages of COMPOUND O between 120 mg/kg qod (once every other day) and 160 mg/kg q3d (once every 3 days) were used in the study.
Preparation of tumor cells for transplantation and determination of compound efficacy. To prepare the tumor cells for MKN45 human gastric-intestinal cancer xenograft model, the fast grown tumors were first removed from the transplanted tumor mice, the tumor tissues were dissected to 1-2 mm^3 in dimension. These micro-tumors were then subcutaneously injected into the auxiliary region (right-side) of each mouse. After the inoculated tumors grew to a certain size (60-80 mm^3) in the nude mice, the mice were randomized into different dosing groups and subjected to compound treatment. Between 2-3 weeks after the first dosing, mice were sacrificed and the transplanted tumors were removed from experimental mice. Each removed solid tumor was weighed; the tumor inhibition rate in each dosage group was calculated according to the formula:
Tumor inhibition rate %=(average weight of tumor in the negative control group−average weight of tumor in the compound treated group)/average weight of tumor in the negative control group×100 (1)
All used materials including animal food, animal cage, supporting materials and apparatus contacted by animals, were high-pressure sterilized. Nude mice were maintained in laminar flow shelves under SPF condition. After tumor transplantation, mouse weight and tumor size in each compound dosage group were dynamically monitored and plotted. The tumor size was determined by measuring the major axis (a) and minor axis (b) of the tumor, and tumor volume was calculated according to the formula: […]

[2] = test system: SW620 cells (human colon cancer cell line); assay: Inhibition of cell proliferation, xCelligence cell index; type: cell-based; conditions: SW-620, 72 hr post compound treatment, read-out: calculated IC50
From the text: The biological activity of compounds disclosed herein was monitored and profiled using the Real-Time Cell Electronic Sensing (RT-CES®) system from ACEA Biosciences, Inc. The RT-CES system utilizes cell-substrate impedance technology to monitor cellular behavior inside tissue culture wells in a microtiter plate format. The technology features in the integration of molecular and cell biology with microelectronics and is based on the electronic detection of biological assay process. […]
For measurement of cell-substrate or cell-electrode impedance using RT-CES technology, microelectrodes having appropriate geometries are fabricated onto the bottom surfaces of microtiter plate or similar device, facing into the wells. […] When there are changes to the biological status of the cells analogue electronic readout signals are measured automatically and in real time, and are converted to digital signals for processing and for analysis. In a RT-CES system, a cell index (arbitrary representation of change in impedance) is automatically derived and provided based on measured electrode impedance values. […]
To quantify cell status based on the measured cell-electrode impedance, a parameter termed Cell Index is derived. Cell Index is a quantitative measure of the status of the cells in an electrode-containing well. […]

COc1cc([C@@H]2c3cc4c(cc3[C@@H](O[C@@H]3O[C@@H]5CO[C@@H](C)O[C@H]5[C@H](O)[C@H]3O)[C@H]3COC(=O)[C@H]23)OCO4)cc(OC)c1O [Etoposide, reference compound]
TV inhibition rate % T/C ([1]; 50 mg/kg ig × 6 q3d): 56.9%
Tumor volume (mm^3) End ([1]; 50 mg/kg ig × 6 q3d): 1164 ± 483 mm^3
Tumor volume (mm^3) Start ([1]; 50 mg/kg ig × 6 q3d): 69.46 ± 16 mm^3
Tumor weight (g) x ± SD ([1]; 50 mg/kg ig × 6 q3d): 1.024 ± 0.345 g
Tumor inhibition rate % ([1]; 50 mg/kg ig × 6 q3d): 48.4%

CC(=O)O[C@H]1C(=O)[C@@]2(C)[C@H]([C@H](OC(=O)c3ccccc3)[C@]3(O)C[C@H](OC(=O)[C@H](O)[C@@H](NC(=O)c4ccccc4)c4ccccc4)C(C)=C1C3(C)C)[C@]1(OC(C)=O)CO[C@@H]1C[C@@H]2O [paclitaxel]
IC50 [2]: 0.998 nM

CCc1ccc(Nc2nc(-c3c(C)nc4sccn34)cs2)cc1 [COMPOUND O, 2-(4-ethylphenyl)amino-4-(6-methylimidazo[2,1-b]thiazol-5-yl)-thiazole monohydrobromide]
IC50 [2]: 2.65 nM
TV inhibition rate % T/C ([1]; 120 mg/kg ig × 9 qod): 44.1%
Tumor volume (mm^3) End ([1]; 120 mg/kg ig × 9 qod): 905 ± 403 mm^3
Tumor volume (mm^3) Start ([1]; 120 mg/kg ig × 9 qod): 69.58 ± 11 mm^3
Tumor weight (g) x ± SD ([1]; 120 mg/kg ig × 9 qod): 0.835 ± 0.41 g
Tumor inhibition rate % ([1]; 120 mg/kg ig × 9 qod): 58.0%
TV inhibition rate % T/C ([1]; 160 mg/kg ig × 6 q3d): 45.3%
Tumor volume (mm^3) End ([1]; 160 mg/kg ig × 6 q3d): 904 ± 347 mm^3
Tumor volume (mm^3) Start ([1]; 160 mg/kg ig × 6 q3d): 67.75 ± 25 mm^3
Tumor weight (g) x ± SD ([1]; 160 mg/kg ig × 6 q3d): 0.881 ± 0.467 g
Tumor inhibition rate % ([1]; 160 mg/kg ig × 6 q3d): 55.7%
